≈ marks a conversion by molar mass, not a printed value. Where two headings read alike, the source gives them in different places.
What was measured:
[1] = cited from earlier work
[2] = equilibrium solubility of topiramate in de-ionized water and aqueous surfactant solutions; assay type: physicochemical; settings: for solubility: de-ionized water
Procedure: As defined herein, the solubility of a pharmaceutical agent is determined by adding the pharmaceutical agent to stirred or agitated de-ionized water maintained in a constant temperature bath at a temperature of 37° C. until no more pharmaceutical agent dissolves. The resulting solution saturated with the pharmaceutical agent is then filtered, typically under pressure through a 0.8-micron Millipore filter, and the concentration of the pharmaceutical agent in the solution is measured by any appropriate analytical method including gravimetric, ultraviolet spectrophometry, chromatography, and the like. The solubility of the pharmaceutical agent is measured at equilibrium.
A drug composition of the present invention was prepared as follows. Aqueous solutions of five surfactants were prepared. The selected surfactants were four grades of ethylene oxide/propylene oxide/ethylene oxide (LUTROL grades F127, F87, F108, and F68) and PEG-40 stearate (MYRJ 52). Solutions were made at concentrations of 1, 5, and 15 weight percent. The aqueous surfactant blends solutions were chilled as necessary to promote complete dissolution of the surfactant prior to drug solubility studies.
The aqueous surfactant solutions were equilibrated to constant temperature in a 37° C. water bath. Then, neat topiramate drug was added slowly with stirring in approximately 10 mg increments to the surfactant solutions until no more drug dissolved. A control sample of drug dissolved in de-ionized water without surfactant was included for comparison purposes. The resulting saturated solutions of drug were filtered through 0.8 micron filters and analyzed for drug concentration by refractive index chromatography. The resulting solubility values were plotted as a function of both surfactant concentration and the hydrophilic-lipophilic balance value of each surfactant. FIG. 6 was constructed from the solubility values obtained and HLB data for each surfactant utilized.

[3] = cited from earlier work; remark: listed apart in the source

SMILES: CC1(C)O[C@@H]2[C@@H](CO[C@@]3(COS(N)(=O)=O)OC(C)(C)O[C@@H]23)O1 [topiramate, 2,3:4,5-bis-O-(1-methylethylidene)-β-D-fructopyranose sulfamate]
- dose proportionality of pharmacokinetics ([1]; in vivo): linear
- effect of food on pharmacokinetics ([1]; in vivo): not significantly affected by food
- excretion ([1]; in vivo): excreted largely through the urine
- mean elimination half life ([1]; in vivo): about 21 hours
- metabolism ([1]; in vivo): not extensively metabolized
- time to peak plasma drug concentrations ([1]; oral, immediate release dosage form): approximately 2 hours
- solubility in water in presence of surfactant ([2]; LUTROL F127, F87, F108, F68, MYRJ 52 at 1, 5, 15 weight percent, 37° C.): increased by each surfactant
- solubility ([2]; water, thermodynamic from solid, without surfactant, 37° C., read-out: solubility in de-ionized water): ~12 mg/mL (≈ 35.4 mM)
- solubility ([2]; read-out: solubility of neat topiramate (range)): 9.8 to 13 mg/mL (≈ 28.9 to 38.3 mM)
- solubility in organic solvents ([3]; acetone, dimethylsulfoxide, ethanol): soluble in acetone, dimethylsulfoxide and ethanol
- solubility in alkaline solutions ([3]; alkaline solutions containing sodium hydroxide or sodium phosphate): soluble in alkaline solutions
- solubility of topiramate in water ([3]; room temperature): about 9.8 mg/ml

— patent publication US20070243254A1, “NOVEL DRUG COMPOSITIONS AND DOSAGE FORMS OF TOPIRAMATE” (priority 2002, published 2007)
